Here are results for 28 compounds from US20120202787A1, “Novel Heteroaryl Imidazoles And Heteroaryl Triazoles As Gamma-Secretase Modulators” (Pfizer Inc., priority 2009, published 2012).

This test relates to γ-secretase (production of amyloid beta protein Aβ (1-42)). The experiment in a line: Cell-based γ-secretase assay with ELISA readout (Aβ (1-42) production). Also noted: species or system human WT-APP overexpressing CHO cells. Particulars: human WT-APP overexpressing CHO cells; Aβ (1-42) ELISA; about 24 hours at 37° C.; free base or salt; read-out: Aβ 42B IC50 (μM) (Geometric Mean of 2-8 Determinations). As for the experimental part: Cell-Based γ-Secretase Assay with ELISA Readout
The ability of compounds to modulate production of amyloid beta protein Aβ (1-42) was determined using human WT-APP overexpressing CHO cells. Cells were plated at 22,000 cells/100 μL well in 96 well tissue culture treated, clear plates (Falcon) in DMEM/F12 based medium and incubated for 24 hours at 37° C. Compounds for testing were diluted in 100% DMSO to achieve an eleven points, half log, dose response for IC50 determinations. Compounds were added in fresh medium to achieve 1% final DMSO. Appropriate vehicle and inhibitor controls were added to obtain maximum and minimum inhibition values for the assay before the plates were incubated for about 24 hours at 37° C.
Coating of ELISA assay plates was initiated by addition of 50 μL/well of an in-house Aβ (1-42) specific antibody at (4 μg/mL) in 0.1 M NaHCO3 (pH 9.0) into black 384-well Maxisorp® plates (Nunc) and incubated overnight at 4° C. The capture antibody was then aspirated from the ELISA assay plates and 100 μL/well of Blocking Buffer (Dulbecco's PBS, 1.5% BSA (Sigma A7030)) added. Ambient temperature incubation was allowed to proceed for a minimum of two hours before washing 2×100 μL with Wash Buffer (Dulbecco's PBS, 0.05% Tween 20). Assay Buffer (Dulbecco's PBS, 1.0% BSA (Sigma A7030), 0.05% Tween 20) 20 μL/well was then added.
After incubation overnight at 37° C., 5% CO2, 40 μL (in duplicate) of experimental conditioned media were transferred into wells of the blocked ELISA plates containing the capture antibody, followed by overnight incubation at 4° C. Cell toxicity was measured in the corresponding cells after removal of the media for the Aβ (1-42) assay by a colorimetric cell proliferation assay (CellTiter 96® AQueous One Solution Cell Proliferation Assay, Promega) according to the manufacturer's instructions.
After overnight incubation of the ELISA assay plates at 4° C., unbound Aβ peptides were removed thorough (4×100 μL) washes with Wash Buffer. Europium (Eu) labeled (custom labeled, Perkin Elmer) Aβ (1-16) 6e10 Monoclonal Antibody (Covance #SIG-39320 was added, (50 μL /well Eu-6e10 @ 1:5000, 20 uM EDTA) in Assay Buffer. Incubation at ambient temperature for a minimum of 2 hours was followed by (4×100 μL) washes with Wash Buffer, before 50 μL/well of Delfia Enhancement Solution (Perkin Elmer) was added. Following a one hour ambient temperature incubation, the plates were read on an EnVision plate reader (Perkin Elmer) using standard DELFIA TRF settings. Data analysis including inhibitory IC50 determination was performed using nonlinear regression fit analysis (in-house software) and the appropriate plate mean values for the maximum and minimum inhibition controls.

Bounds are passed on as bounds.

What is called IC50 is the concentration that inhibits the measured activity by half. With `Cc1cn(-c2ccc(C(=O)NCC3(c4cccc(C(F)(F)F)c4)CCOCC3)cn2)cn1` [Example 1, 6-(4-Methyl-1H-imidazol-1-yl)-N-({4-[3-(trifluoromethyl)phenyl]tetrahydro-2H-pyran-4-yl}methyl)nicotinamide], the IC50 stood at 13.6 µM.

`COc1nc(C(=O)NCC2(c3ccccc3)CCCC2)cnc1-n1cnc(C)c1` [Example 2, 6-Methoxy-5-(4-methyl-1H-imidazol-1-yl)-N-[(1-phenylcyclopentyl)methyl]pyrazine-2-carboxamide]: the concentration for half-maximal inhibition (IC50) came to 2.29 µM.

`COc1nc(C(=O)NCC2(c3ccc(Cl)cc3)CC2)ccc1-n1cnc(C)c1` [Example 3, N-{[1-(4-Chlorophenyl)cyclopropyl]methyl}-6-methoxy-5-(4-methyl-1H-imidazol-1-yl)pyridine-2-carboxamide]: the IC50 was found to be 0.186 µM.

For the compound `COc1nc(C(=O)NCc2cccc(C(F)(F)F)c2)cnc1-n1cnc(C)c1` [Example 4, 6-Methoxy-5-(4-methyl-1H-imidazol-1-yl)-N-[3-(trifluoromethyl)benzyl]pyrazine-2-carboxamide], the IC50 was determined as 1.75 µM.

On to `COc1nc(C(=O)NCC2(c3ccc(F)cc3)CC2)ccc1-n1cnc(C)c1` [Example 5, N-{[1-(4-Fluorophenyl)cyclopropyl]methyl}-6-methoxy-5-(4-methyl-1H-imidazol-1-yl)pyridine-2-carboxamide], for which the IC50 was determined as 0.34 µM.

For the compound `COc1nc(C(=O)NCC2(c3ccc(F)cc3)CC2)cnc1-n1cnc(C)c1` [Example 6, N-{[1-(4-Fluorophenyl)cyclopropyl]methyl}-6-methoxy-5-(4-methyl-1H-imidazol-1-yl)pyrazine-2-carboxamide], the IC50 came out at 1.3 µM.

For the compound `COc1nc(C(=O)NCC2(c3ccc(Cl)cc3)CC2)cnc1-n1cnc(C)c1` [Example 7, N-{[1-(4-Chlorophenyl)cyclopropyl]methyl}-6-methoxy-5-(4-methyl-1H-imidazol-1-yl)pyrazine-2-carboxamide], the IC50 came out at 0.591 µM.

On to `COc1nc(C(=O)N2CC[C@H](Oc3ccccc3C(F)(F)F)C2)cnc1-n1cnc(C)c1` [Example 8, 3-methoxy-2-(4-methyl-1H-imidazol-1-yl)-5-({(3S)-3-[2-(trifluoromethyl)-phenoxy]pyrrolidin-1-yl}carbonyl)pyrazine], for which the IC50 came to 0.535 µM.

On to `COc1nc(C(=O)N2CC[C@@H](Oc3ccccc3C(F)(F)F)C2)cnc1-n1cnc(C)c1` [Example 9, 3-methoxy-2-(4-methyl-1H-imidazol-1-yl)-5-({(3R)-3-[2-(trifluoromethyl)-phenoxy]pyrrolidin-1-yl}carbonyl)pyrazine], for which the half-inhibitory concentration (IC50) turned out to be 0.643 µM.

With `COc1nc(C(=O)NCC2(c3cccc(C)c3)CCC2)cnc1-n1cnc(C)c1` [Example 10, 6-methoxy-5-(4-methyl-1H-imidazol-1-yl)-N-{[1-(3-methylphenyl)cyclobutyl]-methyl}pyrazine-2-carboxamide], the IC50 amounted to 0.827 µM.

Take `COc1nc(C(=O)NCC2(c3ccc(F)cc3)CCC2)cnc1-n1cnc(C)c1` [Example 11, N-{[1-(4-fluorophenyl)-cyclobutyl]methyl}-6-methoxy-5-(4-methyl-1H-imidazol-1-yl)pyrazine-2-carboxamide]: the IC50 was 1.38 µM.

For the compound `COc1nc(C(=O)NCCc2nc3ccc(Cl)cc3o2)cnc1-n1cnc(C)c1` [Example 12, N-[2-(6-chloro-1,3-benzoxazol-2-yl)ethyl]-6-methoxy-5-(4-methyl-1H-imidazol-1-yl)pyrazine-2-carboxamide], the IC50 was determined as 1.43 µM.

Turning to `COc1nc(C(=O)NCC(C)(C)c2ccc(F)cc2)cnc1-n1cnc(C)c1` [Example 13, N-[2-(4-fluorophenyl)-2-methylpropyl]-6-methoxy-5-(4-methyl-1H-imidazol-1-yl)pyrazine-2-carboxamide], the IC50 stood at 1.36 µM.

As for `COc1nc(C(=O)NCC2(c3ccc(Cl)cc3)CCCC2)cnc1-n1cnc(C)c1` [Example 14, N-{[1-(4-chlorophenyl)cyclopentyl]methyl}-6-methoxy-5-(4-methyl-1H-imidazol-1-yl)pyrazine-2-carboxamide], the half-inhibitory concentration (IC50) was found to be 1.45 µM.

For the compound `COc1nc(C(=O)NC(C)(C)c2cccc(Cl)c2)cnc1-n1cnc(C)c1` [Example 15, N-[1-(3-chlorophenyl)-1-methylethyl]-6-methoxy-5-(4-methyl-1H-imidazol-1-yl)pyrazine-2-carboxamide], the IC50 came out at 1.82 µM.

As to `COc1nc(C(=O)NCc2cnc(-c3ccccc3)s2)cnc1-n1cnc(C)c1` [Example 16, 6-methoxy-5-(4-methyl-1H-imidazol-1-yl)-N-[(2-phenyl-1,3-thiazol-5-yl)methyl]pyrazine-2-carboxamide], the IC50 turned out to be 1.94 µM.

Take `COc1nc(C(=O)NC(C)(C)c2ccc(F)cc2)cnc1-n1cnc(C)c1` [Example 17, N-[1-(4-fluorophenyl)-1-methylethyl]-6-methoxy-5-(4-methyl-1H-imidazol-1-yl)pyrazine-2-carboxamide]: the IC50 came out at 2.41 µM.

Consider `COc1nc(C(=O)NCc2ccc(OC(F)(F)F)cc2)cnc1-n1cnc(C)c1` [Example 18, 6-methoxy-5-(4-methyl-1H-imidazol-1-yl)-N-[4-(trifluoromethoxy)benzyl]-pyrazine-2-carboxamide], for which the IC50 was found to be 5.43 µM.

Regarding `COc1nc(C(=O)NCC2CCCC2)cnc1-n1cnc(C)c1` [Example 19, N-(cyclopentylmethyl)-6-methoxy-5-(4-methyl-1H-imidazol-1-yl)pyrazine-2-carboxamide], the IC50 is 5.77 µM.

For `COc1cc(C(=O)N2CC[C@H](Oc3ccccc3C(F)(F)F)C2)ncc1-n1cnc(C)c1` [Example 20, 4-methoxy-5-(4-methyl-1H-imidazol-1-yl)-2-({(3S)-3-[2-(trifluoromethyl)-phenoxy]pyrrolidin-1-yl}carbonyl)pyridine], the IC50 was determined as 5.33 µM.

Turning to `COc1cc(C(=O)NCCc2c(C)[nH]c3c(Cl)cc(Cl)cc23)ncc1-n1cnc(C)c1` [Example 21, N-[2-(5,7-dichloro-2-methyl-1H-indol-3-yl)ethyl]-4-methoxy-5-(4-methyl-1H-imidazol-1-yl)pyridine-2-carboxamide], the IC50 worked out at 6.25 µM.

Turning to `COc1cc(C(=O)NCc2sc3c(F)ccc(F)c3c2Cl)ncc1-n1cnc(C)c1` [Example 22, N-[(3-chloro-4,7-difluoro-1-benzothien-2-yl)methyl]-4-methoxy-5-(4-methyl-1H-imidazol-1-yl)pyridine-2-carboxamide], the IC50 is over 15.8 µM.

Turning to `COc1cc(C(=O)NCC2(c3ccc(C(F)(F)F)cc3)CCOCC2)ncc1-n1cnc(C)c1` [Example 23, 4-methoxy-5-(4-methyl-1H-imidazol-1-yl)-N-({4-[4-(trifluoromethyl)phenyl]-tetrahydro-2H-pyran-4-yl}methyl)pyridine-2-carboxamide], the IC50 was determined as 17.2 µM.

Consider `COc1cc(C(=O)NCCc2c[nH]c3ccc(Cl)cc23)ncc1-n1cnc(C)c1` [Example 24, N-[2-(5-chloro-1H-indol-3-yl)ethyl]-4-methoxy-5-(4-methyl-1H-imidazol-1-yl)pyridine-2-carboxamide], for which the IC50 turned out to be 18 µM.

`COc1nc(C(=O)NCC2(c3ccccc3)CCCC2)ccc1-n1cnc(C)c1` [Example 25, 6-methoxy-5-(4-methyl-1H-imidazol-1-yl)-N-[(1-phenylcycloentyl)methyl] pyridine-2-carboxamide]: the IC50 turned out to be 0.316 µM.

For `COc1nc(C(=O)NCCc2nc3ccc(Cl)cc3o2)ccc1-n1cnc(C)c1` [Example 26, N-[2-(6-chloro-1,3-benzoxazol-2-yl)ethyl]-6-methoxy-5-(4-methyl-1H-imidazol-1-yl)pyridine-2-carboxamide], the half-maximal inhibitory concentration (IC50) turned out to be 0.524 µM.

As to `COc1nc(C(=O)NCC2(c3cccc(C)c3)CCC2)ccc1-n1cnc(C)c1` [Example 27, 6-methoxy-5-(4-methyl-1H-imidazol-1-yl)-N-{[1-(3-methylphenyl)cyclobutyl]-methyl}pyridine-2-carboxamide], the IC50 is 0.438 µM.

For `COc1nc(C(=O)NCC2(c3ccc(F)cc3)CCC2)ccc1-n1cnc(C)c1` [Example 28, N-{[1-(4-fluorophenyl)-cyclobutyl]methyl}-6-methoxy-5-(4-methyl-1H-imidazol-1-yl)pyridine-2-carboxamide], the IC50 turned out to be 0.314 µM.
